Source: patent publication US20050164233A1, “Compositions, kits and methods for identification and modulation of type I diabetes” (priority 2000, published 2005)

Tests used:
[1] = tested on: Vα24JαQ T cell clone GW4 (nondiabetic, IL-4+); test: Cytokine secretion (ELISA) from anti-CD3-activated Vα24JαQ T cell clone GW4, inhibitor studies; type: cell-based, human; settings: IL-4+ clone; for secretion of IFN-γ / anti-CD3-induced IL-4 secretion: plate-bound anti-CD3 1 μg/ml, 4 h, ELISA, 10 nM wortmannin; for secretion of IFN-γ: 10 μM LY294002; for anti-CD3-induced IL-4 secretion: 10 μM LY294002, 50 μM PD98059, 50 μM SB203580; for IL-4 secretion after inhibition of PI3-kinase: anti-CD3 plus PI3-kinase inhibitor, 1 ng/ml PMA or 1 μg/ml ionomycin included
Protocol: (§1) Single, Vα24-positive, CD4/8 negative single-cell sorts were grown on irradiated allogeneic feeders at 50,000 cells per well with 5,000 cells per well irradiated (5,000 rads) 721.221 lymphoblastoid cells with 1 μg/ml PHA-P, IL-2 and IL-7 each at 10 units/ml (Boehringer Mannheim) and propagated as described (Wilson et al. (1998) Nature 391: 177-181). Clones positive for Vα24 and NKR-P1A by flow cytometry and a Vα24JαQ CDR3 T cell antigen receptor sequence were assayed for cytokine secretion in C1R/CD1s restriction experiments. For cytokine secretion and inhibitor studies, Vα24JαQ T cell clones GW4 (nondiabetic) and ME10 (diabetic) at 5×10^4 cells per well were activated with plate-bound anti-CD3 or Ig control at 1 μg/ml. Secreted IL-4 and IFN-γ were assayed by ELISA after 4 h of activation as described (Wilson et al. (1998) Nature 391: 177-181). Optimal concentrations of inhibitors previously were determined by inhibitor dose-response experiments. The concentrations of inhibitors used were 10 nM wortmannin; 10 μM LY294002, 50 μM PD98059, a mitogen-activated protein kinase kinase inhibitor, and 50 μM SB203580, a p38 kinase inhibitor. The concentrations of phorbol ester and calcium ionophore used were 1 ng/ml phorbol 12-myristate 13-acetate (PMA) and 1 μg/ml ionomycin. Cyclosporin A (CsA) was used at 5 ng/ml as a negative control, due to itS ability to prevent T cell activation. Calcium flux was determined by loading cells with indo-1 as per the manufacturer's specifications (Molecular Probes), followed by activation with anti-CD3 at 10 μg/ml. Maximal calcium flux was determined by the addition of ionomycin.

[2] = tested on: Vα24JαQ T cell clone ME10 (diabetic, IL-4-null); test: Cytokine secretion (ELISA) from anti-CD3-activated Vα24JαQ T cell clone ME10, inhibitor studies; type: cell-based, human; settings: for secretion of IFN-γ: IL-4-null clone, plate-bound anti-CD3 1 μg/ml, 4 h, ELISA, 10 nM wortmannin, 10 μM LY294002; for defect in IL-4 secretion: diabetic-derived clone ME10, 1 ng/ml PMA, 1 μg/ml ionomycin, alone or in combination
Protocol: as §1

Compound | secretion of IFN-γ [1] | secretion of IFN-γ [2] | anti-CD3-induced IL-4 secretion [1] | IL-4 secretion after inhibition of PI3-kinase [1] | defect in IL-4 secretion [2]
O=c1cc(N2CCOCC2)oc2c(-c3ccccc3)cccc12 [LY294002] | no effect | no effect |  |  | 
COc1cccc(-c2cc(=O)c3ccccc3o2)c1N [PD98059] |  |  | no effect |  | 
CCCCCCCCCCCCCC(=O)O[C@@H]1[C@@H](C)[C@@]2(O)[C@@H](C=C(CO)C[C@]3(O)C(=O)C(C)=C[C@@H]23)[C@@H]2C(C)(C)[C@]12OC(C)=O [PMA, phorbol 12-myristate 13-acetate] |  |  |  | rescued | Neither of these substances alone or in combination repaired the defect
C[S+]([O-])c1ccc(-c2nc(-c3ccncc3)c(-c3ccc(F)cc3)[nH]2)cc1 (stereo not shown) [SB203580] |  |  | no effect |  | 
C[C@H](CCC(=O)O)C[C@H](C)C[C@H](C)C(=O)/C=C(\O)[C@H](C)C[C@H](C)C/C=C/[C@@H](C)[C@@H](O)[C@@H](C)[C@@H](O)C[C@@H]1CC[C@@](C)([C@H]2CC[C@@](C)([C@@H](C)O)O2)O1 [ionomycin] |  |  |  | rescued | Neither of these substances alone or in combination repaired the defect
COC[C@H]1OC(=O)c2coc3c2[C@@]1(C)C1=C(C3=O)[C@@H]2CCC(=O)[C@@]2(C)C[C@H]1OC(C)=O [wortmannin] | no effect | no effect |  |  | 
